This passage reports IC50 results from BindingDB's records for doi:10.1021/jm00095a029 (Warner-Lambert, 1992).

Non-standard residues stand in square brackets, D forms with d. Residues, ends and D or L forms follow the SMILES beside them.

The test relates to Endothelin A receptor. The test can be described thus: ChEBML_63192.

`CC[C@H](C)[C@H](NC(=O)[C@H](CC(=O)O)NC(=O)[C@H](CC(C)C)NC(=O)[C@@H](Cc1ccc(O)cc1)NC(C)=O)C(=O)N[C@H](C(=O)N[C@@H](Cc1c[nH]c2ccccc12)C(=O)O)[C@@H](C)CC` (Ac-[dY]LDIIW-OH): it took 0.4 µM to reach half-maximal inhibition (IC50).
